Assay results published in patent US20110201656A1, “NOVEL DIPHENYL 1,2,3-TRIAZOLE DERIVATIVES USEFUL AS MODULATORS OF NICOTINIC ACETYLCHOLINE RECEPTORS” (NEUROSEARCH A/S, priority 2008, published 2011).

What was measured:
[1] = target: T1, wild-type nAChR α7 receptors (Homo sapiens, UniProt P36544); test: Positive modulation of nAChR α7 currents in Xenopus laevis oocytes (two-electrode voltage clamp); assay type: cell-based; conditions: nAChR α7 expressed in Xenopus laevis oocytes, clamped at −60 mV, 100 μM acetylcholine; for Emax: (test-control)/control×100%, read-out: calculated EC50 Imax (maximal modulation of the control response); for EC50: test compound 0.01-31.6 μM, read-out: calculated EC50 (positive modulation of acetylcholine-induced current)
T1 construct: expressed in transfected cells; host or cells: Xenopus laevis oocytes
Description: In this example the positive modulation of wild-type nAChR α7 receptors by Compounds 3, 7 and 8, representative of the invention, was determined using nAChR a7 receptors heterologously expressed in Xenopus laevis oocytes.
The electrical current through the nAChR α7 channel was measured using conventional two-electrode voltage clamp and nAChR α7 currents were activated by applying pulses of agonist-containing solution onto the nAChR α7 expressing oocyte.
In brief, the oocytes were placed in a recording chambers and continuously super-fused with an Oocyte Ringer (OR) solution containing 90 mM NaCl, 2.5 mM KCl, 2.5 mM CaCl2, 1 mM MgCl2 and 5 mM HEPES (pH adjusted to 7.4). The oocytes were clamped at −60 mV and currents were induced by applying 20 s pulses of 100 μM acetylcholine dissolved in OR. The intervals between the acetylcholine applications were 5 minutes, during which the oocytes were washed with OR. The first three applications were control applications to insure a constant response level of 100 μM acetylcholine. For the subsequent test applications, increasing concentrations (0.01-31.6 μM) of the test compound were applied 30 s before and during the acetylcholine (100 μM) application, which caused a robust increase in the acetylcholine-induced current amplitude.
The positive modulation in the presence of Compound 4 was calculated as (test-control)/control×100% and the concentration response curve for this positive modulation was fitted to the sigmoidal logistic equation: I=Imax/(1+(EC50/[compound])^n), where Imax represents the maximal modulation of the control response, EC50 is the concentration causing a half maximal response, and n is the slope coefficient.

T1 sequence (P36544 23-502): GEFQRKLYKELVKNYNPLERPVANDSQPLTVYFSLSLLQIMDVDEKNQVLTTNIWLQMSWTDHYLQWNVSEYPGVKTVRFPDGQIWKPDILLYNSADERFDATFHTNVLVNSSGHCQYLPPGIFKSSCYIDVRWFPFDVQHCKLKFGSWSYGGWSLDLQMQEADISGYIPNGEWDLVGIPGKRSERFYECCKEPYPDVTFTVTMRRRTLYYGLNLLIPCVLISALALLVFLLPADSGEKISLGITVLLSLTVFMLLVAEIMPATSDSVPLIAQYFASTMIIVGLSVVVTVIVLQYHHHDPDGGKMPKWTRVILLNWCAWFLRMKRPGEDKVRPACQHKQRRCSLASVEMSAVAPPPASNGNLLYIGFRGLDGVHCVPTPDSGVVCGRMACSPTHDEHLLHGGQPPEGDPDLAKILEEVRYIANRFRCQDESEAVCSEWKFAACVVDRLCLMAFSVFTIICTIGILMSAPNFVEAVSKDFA

melting point | Emax [1] | EC50 [1] | Structure (SMILES)
96.5 to 98.9 °C |  |  | COc1ccc(-c2nnn(-c3ccc(C(F)(F)F)cc3F)c2C)cc1 [Compound 1, 1-(2-Fluoro-4-trifluoromethyl-phenyl)-4-(4-methoxy-phenyl)-5-methyl-1H-[1,2,3]triazole]
 | 119% | 14 µM | Cc1c(-c2ccc(O)cc2)nnn1-c1ccc(C(F)(F)F)cc1Cl [Compound 3, 4-[1-(2-Chloro-4-trifluoromethyl-phenyl)-5-methyl-1H-[1,2,3]triazol-4-yl]-phenol]
 | 128% | 17 µM | COc1ccc(-c2nnn(-c3ccc(C(F)(F)F)cc3Cl)c2CO)cc1 [Compound 7, [3-(2-Chloro-4-trifluoromethyl-phenyl)-5-(4-methoxy-phenyl)-3H-[1,2,3]triazol-4-yl]-methanol]
 | 136% | 11 µM | OCc1c(-c2ccc(O)cc2)nnn1-c1ccc(C(F)(F)F)cc1Cl [Compound 8, 4-[1-(2-Chloro-4-trifluoromethyl-phenyl)-5-hydroxymethyl-1H-[1,2,3]triazol-4-yl]-phenol]
